EC50, IC50 and outcome data for 51 compounds are collected here from PubChem BioAssay AID179 (DTP/NCI, 2004).

The assay has as its system CEM cells HIV-1 protection, formazan growth assay. The assay is described as follows: NCI AIDS Antiviral Assay. The conditions noted are these: for IC50: measured here: growth of uninfected CEM cells. A digest of the protocol:
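Steps: treat uninfected and HIV-1-infected human CEM cells at five drug levels; quantify growth by soluble formazan; retest any compound reaching 50% protection; classify actives from the retest.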

The source made the active and inactive calls.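 How the source made its calls: active means compounds giving half or more protection of infected cells from virus-caused growth loss, again on retest; inactive means the rest.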 A value given as a limit tells only on which side of the number the result lay.

One may read the EC50 as the concentration giving half of the maximal effect. Usually IC50 stands for the concentration that gives 50% inhibition. A high value points to lower potency. For the compound `COC1OC(C)/C(=N/O)C2OC(C)(C)OC12` (centres undefined), the EC50 was more than 1070 µM and the IC50 is more than 1070 µM.

As for `CCOC(=O)/C(C#N)=C\c1ccc(N(CCC(=O)O)CCC(=O)O)c(I)c1`, the EC50 was more than 501 µM and the half-maximal inhibitory concentration (IC50) is more than 501 µM.

With `C/C(=N\N(C)C)C(CN1CCCCC1)C(c1ccccc1)c1c(O)c2ccccc2oc1=O` (centres undefined), the EC50 was more than 69.2 µM and the IC50 is more than 69.2 µM.

Regarding `CCCCc1c2c(nc3c1CCc1cc4c(nc1-3)-c1nc3c(c(CCCC)c1CC4)CCC/C3=C\c1ccccc1)/C(=C/c1ccccc1)CCC2`, the EC50 is more than 5.5 µM and the IC50 is more than 5.5 µM.

In the case of `COC(=O)[C@@H]1CCCN1C(=O)C1Cc2c([nH]c3ccccc23)[C@@H](C=C(C)C)N1C(=O)OC(C)(C)C(Cl)(Cl)Cl` (some centres undefined), the result was inactive.

Consider `CCOC(=O)C(C)(C)/C=C\C(Cl)=C(Cl)Cl`, for which the EC50 is more than 200 µM and the IC50 was found to be 117 µM.

As for `CCCC(=O)[O-].CCCC(=O)[O-].NCCN.NCCN.[Co+3].[O-][Cl+3]([O-])([O-])[O-]`, the outcome was inactive.

`CCNc1ccc(-c2ccccc2)nc1N1CCN(C(=O)c2cc3cc(OC)ccc3[nH]2)CC1`: the EC50 was more than 200 µM and the IC50 came to 24 µM.

Regarding `CCOC(=O)C1=NN(c2ccccc2)C(=O)/C1=C\n1ccc(=O)[nH]c1=S`, the outcome was inactive.

Regarding `CO[C@H]1C[C@H](O[C@H]2CC[C@]3(C=O)[C@H]4CC[C@]5(C)[C@@H](C6=CC(=O)OC6)CC[C@]5(O)[C@@H]4CC[C@]3(O)C2)O[C@H](C)[C@H]1O`, the result was inactive.

For the compound `Clc1ccc2nc(-c3ccccc3)nc(Cl)c2c1`, the result was inactive.

Consider `C/C(=N\NC(=S)NC(C)(C)C)c1ccccn1`, for which the EC50 was more than 200 µM and the IC50 came out at 0.0631 µM.

For the compound `Cc1c(C)c2cc3c(=O)c(CCl)coc3c(C)c2oc1=O`, the EC50 is more than 17 µM and the IC50 is more than 17 µM.

Regarding `OC1CSCCCSCC(O)CSCCCSC1` (centres undefined), the EC50 is more than 759 µM and the IC50 worked out at 389 µM.

As for `Cc1ccccc1/C=C1/N=C(c2ccccc2)OC1=O`, the EC50 is more than 200 µM and the IC50 worked out at 33.1 µM.

Consider `N#CC(C#N)=Cc1cccc(Cl)c1`, for which the EC50 is more than 117 µM and the IC50 is 22.4 µM.

As to `CCN(CC)CC1CCCCN1CC(=O)N1c2ccccc2NC(=O)CC1C` (centres undefined), the EC50 is 158 µM and the IC50 is more than 200 µM.

As for `COC(=O)C(C)(C)C(=O)C(C)(C)P(C)(=O)OC` (centres undefined), the EC50 is more than 200 µM and the IC50 was more than 200 µM.

As to `COC1=CC(=O)C(CO)=CC1=O`, the EC50 was more than 200 µM and the IC50 amounted to 7.59 µM.

With `CC(C)C1=C(Cc2ccccc2)C(=O)O/C1=C\c1cc(Cl)c(O)c(Cl)c1`, the EC50 is more than 200 µM and the IC50 amounted to 32.4 µM.

On to `CSCCC(N)C(=O)NCCS(=O)(=O)O` (centres undefined), for which the EC50 is more than 200 µM and the IC50 is more than 200 µM.

On to `CCCCCC=C(c1cc(Br)cc(C(=O)O)c1OC)c1cc(Br)cc(C(=O)O)c1OC`, for which the EC50 is more than 170 µM and the IC50 was found to be 166 µM.

Consider `c1ccc(C2=NC3(CCCCC3)N=C2c2ccccc2)cc1`, for which the EC50 was more than 200 µM and the IC50 was 135 µM.

Regarding `Cc1ccc(-n2c(=O)c3nn4c(=O)n(-c5ccc(C)cc5)c(=O)c4nn3c2=O)cc1`, the EC50 was more than 200 µM and the IC50 is more than 200 µM.

Turning to `Cc1ccc(SC2C(=O)C3CC(OCc4ccccc4)C2(C)C3(C)C)cc1` (centres undefined), the EC50 is more than 200 µM and the IC50 was more than 200 µM.

`O=C1CC(c2ccccc2)C2(C(=O)NC(=S)NC2=O)C(c2ccccc2)C1` (centres undefined): the EC50 was more than 75.9 µM and the IC50 came out at 55 µM.

For `CCOC(=O)C1=NN(c2ccc(C)cc2)C2=CC(C)=NN(C)C(=S)N21`, the EC50 is more than 200 µM and the half-inhibitory concentration (IC50) was more than 200 µM.

As for `COc1ccc(C(c2ccc(C(C)C)cc(=O)c2O)c2c(O)cc3oc(-c4ccccc4)cc(=O)c3c2O)cc1` (centres undefined), the result was inactive.

`C/C(CC(=O)Nc1ccc([N+](=O)[O-])cc1)=N\Nc1ccc([N+](=O)[O-])cc1[N+](=O)[O-]`: the EC50 was more than 24.5 µM and the IC50 was more than 24.5 µM.

For the compound `Cc1csc2n/c(=N/[N+](=O)[O-])sn12`, the EC50 was more than 138 µM and the half-maximal inhibitory concentration (IC50) was 66.1 µM.

The compound `COc1cc2c(c(OC)c1OC)-c1ccc(OC)c(=O)cc1C(NC1=C(Cl)C(=O)c3ccccc3C1=O)CC2` (centres undefined) registered an EC50 of more than 174 µM and an IC50 of 0.0562 µM.

As to `O=c1cc(-c2ccccc2)oc2cc(O)ccc12`, the EC50 is more than 186 µM and the IC50 amounted to 85.1 µM.

On to `S=c1[nH]nc(COc2ccc(Cl)cc2)n1-c1ccccc1`, for which the EC50 is more than 200 µM and the IC50 worked out at 30.9 µM.

As to `COC(=O)C1=C(C(=O)OC)N(c2ccc(OC)cc2[N+](=O)[O-])C(c2ccc(C)cc2)=CC1c1ccc(OC)cc1OC` (centres undefined), the EC50 is more than 100 µM and the IC50 was determined as 3.02 µM.

Regarding `O=c1oc2ccccc2cc1F`, the EC50 is more than 302 µM and the IC50 is more than 302 µM.

As for `Clc1ccc(NC2=NCCN=C(Nc3ccc(Cl)cc3)SS2)cc1`, the EC50 is more than 200 µM and the IC50 came to 22.9 µM.

Regarding `CNNC1=NS(=O)(=O)c2cc(C(=O)OC)c(Cl)cc2S1`, the EC50 was more than 200 µM and the IC50 was more than 200 µM.

As for `COC1/C=C/OC2(C)Oc3c(C)c(O)c4c(O)c(c(/C=N/N5C(C)CN(Cc6ccc(C(C)(C)C)cc6)CC5C)c(O)c4c3C2=O)NC(=O)/C(C)=C\C=C\C(C)C(O)C(C)C(O)C(C)C(OC(C)=O)C1C` (centres undefined), the EC50 is more than 200 µM and the IC50 was 12.3 µM.

Regarding `CC(C)(C)OC(=O)NC(Cc1ccc(OC(C)(C)C)cc1)C(=O)N[C@H]1CCC[C@H]1C(=O)NC(Cc1ccccc1)C(=O)N1CCCC1C(N)=O` (some centres undefined), the EC50 is more than 100 µM and the IC50 is more than 100 µM.

`O=C(O)c1ccc(C(=O)O)c(C(=O)c2cc(C(=O)O)ccc2C(=O)O)c1`: the EC50 is more than 162 µM and the IC50 is 61.7 µM.

For `O=C1[O][Bi]23[O]C(=O)C([O]2)C1[O]3`, the EC50 is more than 36.3 µM and the IC50 is more than 36.3 µM.

With `CC(C)(C)SSC(C)(C)C`, the EC50 is more than 200 µM and the IC50 is more than 200 µM.

Consider `CCOC(=O)c1cc2c3c(c1)C(=O)C(C)CN3CC(C)C2=O` (centres undefined), for which the outcome was inactive.

Turning to `CC(=O)OCc1nnn2c1CCC2`, the outcome was inactive.

On to `O=C1CCCCC/C1=C\c1cccc(F)c1`, for which the EC50 was more than 200 µM and the half-inhibitory concentration (IC50) was more than 100 µM.

With `Cc1ccc(O)c(N=O)c1.[Cu+2]`, the EC50 was more than 200 µM and the IC50 came out at 2.63 µM.

On to `CN(CCc1ccccn1)C(=S)N/N=C/c1ccccn1`, for which the EC50 is more than 0.2 µM and the concentration for half-maximal inhibition (IC50) is 0.0251 µM.

Regarding `C=CCCCC[P+](c1ccccc1)(c1ccccc1)c1ccccc1`, the EC50 is more than 20 µM and the IC50 was 1.45 µM.

Consider `COc1ccc2c(c1)C(=O)OCCC2`, for which the EC50 is more than 200 µM and the IC50 was more than 200 µM.

Take `Cc1cn(C2CCN(c3ccccc3)O2)c(=O)[nH]c1=O` (centres undefined): the EC50 was more than 200 µM and the IC50 is more than 200 µM.

Regarding `CC(C)CCCC(C)[C@H]1CC[C@H]2[C@@H]3CC[C@H]4C[C@@H](CCC=C(c5cc(Cl)c(O)c(C(=O)O)c5)c5cc(Cl)c(O)c(C(=O)O)c5)CC[C@]4(C)[C@H]3CC[C@]12C` (some centres undefined), the EC50 was 60.3 µM and the IC50 worked out at 129 µM.
